Common to all, as to type: cell-based
In one assay the target is T1, human TLR8 (Homo sapiens, UniProt Q9NR97).
T1 construct: host or cells: HEK-Blue cells
T1 sequence (Q9NR97 27-1041): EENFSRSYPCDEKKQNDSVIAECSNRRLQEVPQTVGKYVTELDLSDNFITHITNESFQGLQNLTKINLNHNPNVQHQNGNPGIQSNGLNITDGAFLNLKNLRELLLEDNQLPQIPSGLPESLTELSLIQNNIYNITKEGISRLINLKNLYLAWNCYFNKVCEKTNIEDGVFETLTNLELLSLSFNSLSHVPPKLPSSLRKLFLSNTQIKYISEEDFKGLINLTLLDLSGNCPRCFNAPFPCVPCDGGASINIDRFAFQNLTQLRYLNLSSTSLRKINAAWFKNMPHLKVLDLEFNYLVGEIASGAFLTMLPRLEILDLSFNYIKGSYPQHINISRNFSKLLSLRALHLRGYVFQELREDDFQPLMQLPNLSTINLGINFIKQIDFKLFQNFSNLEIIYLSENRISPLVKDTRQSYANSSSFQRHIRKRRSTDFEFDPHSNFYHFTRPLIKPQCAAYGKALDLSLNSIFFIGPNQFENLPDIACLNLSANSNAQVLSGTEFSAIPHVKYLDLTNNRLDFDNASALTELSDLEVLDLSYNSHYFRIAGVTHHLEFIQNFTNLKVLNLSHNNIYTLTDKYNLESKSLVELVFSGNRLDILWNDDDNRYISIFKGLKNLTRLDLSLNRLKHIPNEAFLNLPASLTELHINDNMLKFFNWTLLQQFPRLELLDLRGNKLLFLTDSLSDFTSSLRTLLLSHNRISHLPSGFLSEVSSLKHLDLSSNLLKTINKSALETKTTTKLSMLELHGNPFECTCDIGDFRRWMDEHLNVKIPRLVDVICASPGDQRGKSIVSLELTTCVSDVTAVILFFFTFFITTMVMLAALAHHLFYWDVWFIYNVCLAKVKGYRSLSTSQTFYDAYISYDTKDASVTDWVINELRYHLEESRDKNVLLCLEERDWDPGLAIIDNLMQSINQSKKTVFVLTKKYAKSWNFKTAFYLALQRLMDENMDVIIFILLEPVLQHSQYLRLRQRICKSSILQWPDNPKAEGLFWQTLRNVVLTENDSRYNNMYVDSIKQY
Briefly: TLR8 inhibition reporter assay (HEK-Blue cells, SEAP reporter, R848 stimulation). The conditions noted are these: HEK-Blue cells overexpressing human TLR8, SEAP reporter, R848 15.9 μM. The method, boiled down: (§1)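 Ligand levels: TLR7 gardiquimod 7.5 μM, TLR8 R848 15.9 μM, TLR9 ODN2006 5 nM, added after 30 min room-temperature compound pre-incubation at 0.05 nM-50 μM. Reporter SEAP read with HEK-Blue Detection reagent after 22 h, 37° C. Inhibition expressed as % reduction relative to agonist-plus-DMSO and known-inhibitor controls.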

Another assay deals with T2, human TLR7 (Homo sapiens, UniProt Q9NYK1).
T2 construct: host or cells: HEK-Blue cells
T2 sequence (Q9NYK1 27-1049): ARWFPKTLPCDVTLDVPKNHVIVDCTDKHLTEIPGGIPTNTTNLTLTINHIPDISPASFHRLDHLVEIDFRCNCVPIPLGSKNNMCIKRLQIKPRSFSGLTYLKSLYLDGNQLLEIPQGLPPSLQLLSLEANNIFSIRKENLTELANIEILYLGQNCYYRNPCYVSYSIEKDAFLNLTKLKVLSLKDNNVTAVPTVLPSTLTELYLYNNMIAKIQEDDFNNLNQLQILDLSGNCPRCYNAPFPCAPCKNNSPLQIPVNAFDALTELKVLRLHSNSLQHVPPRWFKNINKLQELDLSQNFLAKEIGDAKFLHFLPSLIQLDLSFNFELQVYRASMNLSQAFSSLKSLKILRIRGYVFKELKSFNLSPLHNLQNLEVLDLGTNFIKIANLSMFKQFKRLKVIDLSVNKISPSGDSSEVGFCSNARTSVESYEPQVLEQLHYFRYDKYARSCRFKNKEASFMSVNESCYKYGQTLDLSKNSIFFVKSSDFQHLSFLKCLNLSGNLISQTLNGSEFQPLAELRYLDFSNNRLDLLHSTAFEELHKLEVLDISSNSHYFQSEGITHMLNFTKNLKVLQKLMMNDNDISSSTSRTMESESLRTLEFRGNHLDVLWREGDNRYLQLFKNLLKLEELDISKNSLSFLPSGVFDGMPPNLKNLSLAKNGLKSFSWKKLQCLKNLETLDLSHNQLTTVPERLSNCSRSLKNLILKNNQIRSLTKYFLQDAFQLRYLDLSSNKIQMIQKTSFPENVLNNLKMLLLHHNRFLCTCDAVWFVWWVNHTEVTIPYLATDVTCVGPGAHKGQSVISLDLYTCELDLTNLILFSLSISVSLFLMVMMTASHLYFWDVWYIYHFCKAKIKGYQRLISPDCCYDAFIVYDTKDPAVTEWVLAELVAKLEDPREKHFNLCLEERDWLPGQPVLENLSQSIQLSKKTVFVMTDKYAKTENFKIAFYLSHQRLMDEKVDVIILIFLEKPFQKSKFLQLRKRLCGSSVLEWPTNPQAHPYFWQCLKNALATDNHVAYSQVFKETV
Put plainly: TLR7 inhibition reporter assay (HEK-Blue cells, SEAP reporter, gardiquimod stimulation). The conditions noted are these: HEK-Blue cells overexpressing human TLR7, SEAP reporter, gardiquimod 7.5 μM. In short, it runs like this:
as §1
Background: A reporter such as luciferase makes a cellular process visible.

For another assay, the target named is T3, human TLR9 (Homo sapiens, UniProt Q9NR96).
T3 construct: host or cells: HEK-Blue cells
T3 sequence (Q9NR96 26-1032): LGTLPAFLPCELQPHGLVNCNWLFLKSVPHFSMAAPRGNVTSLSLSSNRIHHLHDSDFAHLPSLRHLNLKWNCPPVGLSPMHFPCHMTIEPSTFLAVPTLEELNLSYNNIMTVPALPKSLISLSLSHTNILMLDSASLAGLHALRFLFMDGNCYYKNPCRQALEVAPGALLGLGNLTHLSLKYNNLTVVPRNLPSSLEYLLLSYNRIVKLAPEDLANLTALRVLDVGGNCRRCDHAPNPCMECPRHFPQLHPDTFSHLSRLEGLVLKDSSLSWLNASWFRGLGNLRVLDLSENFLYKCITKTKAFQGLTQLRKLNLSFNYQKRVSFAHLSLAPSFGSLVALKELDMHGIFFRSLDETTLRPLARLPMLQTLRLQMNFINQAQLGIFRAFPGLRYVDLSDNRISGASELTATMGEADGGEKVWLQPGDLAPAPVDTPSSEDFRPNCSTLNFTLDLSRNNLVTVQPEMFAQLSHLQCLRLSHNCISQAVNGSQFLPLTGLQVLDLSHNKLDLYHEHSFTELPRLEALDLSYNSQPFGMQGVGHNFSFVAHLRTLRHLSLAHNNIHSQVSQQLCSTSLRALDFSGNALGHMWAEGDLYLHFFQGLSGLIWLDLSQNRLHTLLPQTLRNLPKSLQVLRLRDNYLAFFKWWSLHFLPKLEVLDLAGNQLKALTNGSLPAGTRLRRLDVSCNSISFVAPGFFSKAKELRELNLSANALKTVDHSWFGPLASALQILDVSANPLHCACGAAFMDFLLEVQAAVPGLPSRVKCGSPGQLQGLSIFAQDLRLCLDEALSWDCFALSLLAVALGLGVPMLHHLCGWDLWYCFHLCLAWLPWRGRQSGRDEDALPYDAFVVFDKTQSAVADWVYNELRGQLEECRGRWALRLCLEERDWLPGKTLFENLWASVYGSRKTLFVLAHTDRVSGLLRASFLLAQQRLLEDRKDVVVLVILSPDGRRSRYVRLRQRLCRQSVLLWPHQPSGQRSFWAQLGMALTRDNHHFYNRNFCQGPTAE
Briefly: TLR9 inhibition reporter assay (HEK-Blue cells, SEAP reporter, ODN2006 stimulation). The conditions noted are these: HEK-Blue cells overexpressing human TLR9, SEAP reporter, ODN2006 5 nM. In short, it runs like this:
as §1

The record followed here is US11878975B2, “Substituted indole compounds useful as TLR inhibitors” (BRISTOL-MYERS SQUIBB COMPANY, priority 2017, dated 2024).

Turning to `COCCN(C)C1CCC(c2ccc3[nH]c(-c4cn5ncnc5c(C)c4C)c(C(C)C)c3c2)CC1` (single isomer, unassigned) [Example 152, 4-(2-(7,8-dimethyl-[1,2,4]triazolo[1,5-a]pyridin-6-yl)-3-isopropyl-1H-indol-5-yl)-N-(2-methoxyethyl)-N-methylcyclohexanamine], the IC50 is 3.4 nM against human TLR8, 4 nM on human TLR7 and 2850 nM against human TLR9.

As for `Cc1cc(-c2[nH]c3ccc(C4CCC(N5CCOCC5)CC4)cc3c2C(C)C)cc(C)n1` (stereo not drawn) [Example 497], the values for the IC50 on human TLR8, at human TLR7 and against human TLR9 were 2.3 nM, 1 nM and 649 nM, respectively.

With `Cc1cc(-c2[nH]c3ccc(C4CCC(O)CC4)cc3c2C(C)C)ccn1` (stereo not drawn) [Example 173], the IC50 was 56 nM at human TLR8, 46 nM at human TLR7 and greater than 50000 nM against human TLR9.

In the case of `CNC1CCC(c2ccc3[nH]c(-c4cc(OC)c5ncnn5c4)c(C(C)C)c3c2)CC1` (single isomer, unassigned) [Example 146, 4-(3-isopropyl-2-(8-methoxy-[1,2,4]triazolo[1,5-a]pyridin-6-yl)-1H-indol-5-yl)-N-methylcyclohexanamine], the IC50 at human TLR8 worked out at 3.7 nM; against human TLR7, 0.79 nM; against human TLR9 it was 1620 nM.

As to `Cc1cc(-c2[nH]c3ccc([C@@H]4C[C@H]4C(=O)N(C)C4CC5CCN4CC5)cc3c2C(C)C)ccn1` (stereo partly drawn) [Example 459], the IC50 on human TLR8 was determined as 10 nM; against human TLR7 it was 19 nM; on human TLR9, 174 nM.

For the molecule `Cc1c(-c2[nH]c3ccc(C4CC(NCC#N)C4)cc3c2C(C)C)cn2ncnc2c1C` (stereo not drawn) [Example 567], the IC50 is 1.1 nM at human TLR8, 2 nM at human TLR7 and 26700 nM at human TLR9.

For the molecule `Cc1cc(-c2[nH]c3ccc(C4CCC(N5CCCC(F)(F)C5)CC4)cc3c2C(C)C)cn(C)c1=O` (stereo not drawn) [Example 467], the figures for the IC50 at human TLR8, at human TLR7 and on human TLR9 were 33 nM, 48 nM and 47000 nM, respectively.

For `Cc1c(-c2[nH]c3ccc(C4CCC(N5CC(CO)(CO)C5)CC4)cc3c2C(C)C)cn2ncnc2c1C` (single isomer, unassigned) [Example 26], the figures for the IC50 on human TLR8, against human TLR7 and against human TLR9 were 0.84 nM, 0.92 nM and 260 nM, respectively.

Regarding `Cc1c(-c2[nH]c3ccc(C4CN(CC5(C)COC5)C4)cc3c2C(C)C)cn2cnnc2c1C` [Example 536], the IC50 on human TLR8 stood at 21 nM; on human TLR7 it was 26 nM; on human TLR9, 11000 nM.

Consider `CNC(=O)CN1CCOC(c2ccc3[nH]c(-c4cc(C)nc(C)c4)c(C(C)C)c3c2)C1` (stereo not drawn) [Example 323], for which the IC50 was 54 nM against human TLR8, 35 nM at human TLR7 and greater than 50000 nM at human TLR9.

As for `Cc1cc(-c2[nH]c3ccc(C4CCC(NC5COC5)CC4)cc3c2C(C)C)cc(C)n1` (stereo not drawn) [Example 61], the IC50 worked out at 3.9 nM against human TLR8, 1 nM against human TLR7 and 201 nM on human TLR9.

`COc1cc(-c2[nH]c3ccc(C4CC5CNCC5C4)cc3c2C(C)C)cn2ncnc12` (stereo not drawn) [Example 508]: the IC50 stood at 11 nM against human TLR8, 0.43 nM against human TLR7 and 1490 nM on human TLR9.

Regarding `Cc1c(-c2[nH]c3ccc(C4CN(CC(N)=O)CCO4)cc3c2C(C)C)cn2ncnc2c1C` (stereo not drawn) [Example 320], the IC50 was 54 nM at human TLR8, 16 nM against human TLR7 and greater than 50000 nM against human TLR9.

Regarding `CNCC(=O)N1CCOC(c2ccc3[nH]c(-c4cc(C)c5ncnn5c4)c(C(C)C)c3c2)C1` (stereo not drawn) [Example 338], the IC50 was found to be 7.1 nM at human TLR8, 0.78 nM at human TLR7 and 2050 nM at human TLR9.

Turning to `Cc1c(-c2[nH]c3ccc(C4CC(NC(=O)CN(C)C)C4)cc3c2C(C)C)cn2ncnc2c1C` (stereo not drawn) [Example 573], the IC50 against human TLR8 came out at 2.3 nM; on human TLR7, 3 nM; against human TLR9 it was 12600 nM.

Turning to `COc1cc(-c2[nH]c3ccc(C4CN(C5COC5)C(C)(C)CO4)cc3c2C(C)C)cn2ncnc12` (stereo not drawn) [Example 378], the IC50 against human TLR8 is 176 nM; on human TLR7 it was 50 nM; at human TLR9, greater than 50000 nM.

Take `CCc1c(-c2ccnc(C)c2)[nH]c2ccc(CNC(=O)C3CCNC3)cc12` (stereo not drawn) [Example 445]: the IC50 against human TLR8 is 3240 nM; against human TLR7, 2680 nM; against human TLR9, 1620 nM.

In the case of `Cc1cc(-c2[nH]c3ccc(C4CCC(C(=O)NC5CCN(C(C)C)CC5)CC4)cc3c2C(C)C)cn2ncnc12` (stereo not drawn) [Example 158], the figures for the IC50 against human TLR8, at human TLR7 and at human TLR9 were 3.2 nM, 0.47 nM and 2290 nM, respectively.

With `CCc1c(-c2ccc(OC)c(OC)c2)[nH]c2ccc(CN3CC4CN(C(C)C)CC4C3)cc12` (stereo not drawn) [Example 392, 2-(3,4-dimethoxyphenyl)-3-ethyl-5-{[5-(propan-2-yl)-octahydropyrrolo[3,4-c]pyrrol-2-yl]methyl}-1H-indole], the values for the IC50 against human TLR8, against human TLR7 and against human TLR9 were 553 nM, 2390 nM and 1180 nM, respectively.

As to `Cc1cc(-c2[nH]c3ccc(C4CCC(NC(=O)CN(C)C)CC4)cc3c2C(C)C)cc(C)n1` (stereo not drawn) [Example 119], the IC50 turned out to be 7.2 nM on human TLR8, 0.95 nM against human TLR7 and 976 nM at human TLR9.

As usually defined, the IC50 is the point on the concentration scale where inhibition reaches its midpoint.
